Experimental data from ChEMBL document CHEMBL1944507, “Structure-activity relationships for amide-, carbamate-, and urea-linked analogues of the tuberculosis drug (6S)-2-nitro-6-{[4-(trifluoromethoxy)benzyl]oxy}-6,7-dihydro-5H-imidazo[2,1-b][1,3]oxazine (PA-824)” (J Med Chem, 2012).
Converted amounts (≈) assume the structure as drawn.

System: Mycobacterium tuberculosis variant bovis
Experiment: Antimicrobial activity against Mycobacterium bovis
Assay type: functional

Compared with `O=C(N[C@@H]1COc2nc([N+](=O)[O-])cn2C1)c1ccc(OC(F)(F)F)cc1`, `O=C(Nc1ccc(OC(F)(F)F)cc1)N[C@@H]1COc2nc([N+](=O)[O-])cn2C1` is 34-fold lower in MIC: 1.34 µM (≈ 0.499 µg/mL) for the first, 0.039 µM (≈ 0.0151 µg/mL) for the second.

First: O=C(N[C@@H]1COc2nc([N+](=O)[O-])cn2C1)OCc1ccc(OC(F)(F)F)cc1
Second: O=[N+]([O-])c1cn2c(n1)OC[C@@H](OCc1ccc(OC(F)(F)F)cc1)C2 [PRETOMANID]
The MIC of the first is 4.5-fold lower: 0.037 µM (≈ 0.0149 µg/mL) for the first, 0.167 µM (≈ 0.06 µg/mL) for the second.

First: O=C(Nc1ccc(OC(F)(F)F)cc1)O[C@@H]1COc2nc([N+](=O)[O-])cn2C1
Second: O=C(NCc1ccc(OC(F)(F)F)cc1)O[C@@H]1COc2nc([N+](=O)[O-])cn2C1
The MIC of the first is 1.9-fold lower: 0.039 µM (≈ 0.0151 µg/mL) for the first, 0.075 µM (≈ 0.0302 µg/mL) for the second.
